This is an account of results in US12479818B2, “Treatment of fibrosis with IRE1 small molecule inhibitors” (Cornell University, priority 2019, dated 2025).

The subject of experiment [1] is 293T cells. The experiment in a line: Growth assay (cytotoxicity). To be noted: 2 day incubation. It is filed as cell-based, human. The method, then: A growth assay was performed to evaluate the compounds disclosed herein for cytotoxicity. […] 133.3 uL cDMEM was added to wells 1, 2, 3, 5, 6, and 7 in rows A, C, E and G of the dilution plate. Compounds were serially diluted leftwards in threefold dilutions (66.7 uL into 133.3 uL cDMEM). 20 μL of each dilution was transferred in duplicate (duplicates in vertical paired wells) to the cells plated in the 96-well plate shown in Table 5, to the total concentrations shown below. 200 uL cDMEM was added to media wells (wells G5-H8). The plate was then placed in a humidified chamber for a 2 day incubation, and then photographed (media was more yellow in wells with potent cell growth).

Experiment [2] concerns the target IRE1a (Homo sapiens, UniProt O75460). Put plainly: IRE1a Endoribonuclease Nanoluciferase Assay (XBP1 luciferase reporter in 293T cells). Format: cell-based. Further details: endogenous in cells; host or cells: 293T. To be noted: XBP1 nanoluciferase reporter in 293T cells, ER stressor; tested as the salt named.

Sequence of IRE1a (O75460 19-977): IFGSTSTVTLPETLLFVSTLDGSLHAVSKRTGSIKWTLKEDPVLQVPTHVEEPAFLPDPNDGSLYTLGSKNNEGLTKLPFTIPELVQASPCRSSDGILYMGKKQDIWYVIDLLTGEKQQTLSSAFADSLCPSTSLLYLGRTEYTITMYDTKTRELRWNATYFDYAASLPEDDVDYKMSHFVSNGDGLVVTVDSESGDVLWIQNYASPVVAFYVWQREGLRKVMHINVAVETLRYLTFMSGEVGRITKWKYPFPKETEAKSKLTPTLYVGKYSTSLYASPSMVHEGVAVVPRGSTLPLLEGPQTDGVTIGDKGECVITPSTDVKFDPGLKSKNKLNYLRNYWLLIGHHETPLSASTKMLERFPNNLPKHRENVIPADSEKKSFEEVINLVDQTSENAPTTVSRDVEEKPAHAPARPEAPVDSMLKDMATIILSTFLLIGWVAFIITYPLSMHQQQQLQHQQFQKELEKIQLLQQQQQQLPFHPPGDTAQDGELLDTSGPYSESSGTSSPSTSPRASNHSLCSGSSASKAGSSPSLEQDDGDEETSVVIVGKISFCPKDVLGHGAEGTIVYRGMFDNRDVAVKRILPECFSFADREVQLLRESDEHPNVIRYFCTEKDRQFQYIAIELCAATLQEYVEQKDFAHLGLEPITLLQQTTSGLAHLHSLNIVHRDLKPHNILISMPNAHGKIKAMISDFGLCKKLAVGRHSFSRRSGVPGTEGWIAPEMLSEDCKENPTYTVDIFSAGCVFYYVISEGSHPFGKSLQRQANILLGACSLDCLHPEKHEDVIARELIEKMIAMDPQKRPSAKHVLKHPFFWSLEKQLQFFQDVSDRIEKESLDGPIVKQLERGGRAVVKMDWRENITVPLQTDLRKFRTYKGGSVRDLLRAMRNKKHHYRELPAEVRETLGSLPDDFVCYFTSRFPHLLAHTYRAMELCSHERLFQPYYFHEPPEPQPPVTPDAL

By EC50 is commonly meant the concentration needed to bring the measured effect to its halfway point. For the compound `CCc1cc(-c2ccc(NS(=O)(=O)c3ccccc3Cl)nc2OC)cc2cnc(N[C@H]3CC[C@H](N)CC3)nc12` [Compound 37, N-(5-(2-(((1r,4r)-4-aminocyclohexyl)amino)-8-ethylquinazolin-6-yl)-6-methoxypyridin-2-yl)-2-chlorobenzene-sulfonamide], the “% Growth at 0.5556 uM” value in experiment [1] (0.5556 uM) is listed as “D (D: > 75% to ≤ 100%)”. Moreover, the “% Growth at 1.667 uM” value in experiment [1] (1.667 uM) is “C (C: > 50% to ≤ 75%)”. For the same compound, in experiment [1] (5 uM), the “% Growth at 5 uM” value is “B (B: > 25% to ≤ 50%)”. Besides, the EC50 in experiment [2] is under 5 nM.

Turning to `CCc1cc(-c2ccc(NS(=O)(=O)c3ccccc3Cl)nc2C)cc2cnc(N[C@H]3CC[C@H](N(C)CCOC)CC3)nc12` [Compound 132, 2-chloro-N-(5-(8-ethyl-2-(((1r,4r)-4-((2-methoxyethyl)(methyl)amino)cyclohexyl)amino)quinazolin-6-yl)-6-methylpyridin-2-yl)benzenesulfonamide], the concentration for a half-maximal effect (EC50) in experiment [2] is under 5 nM.

For the compound `COc1nc(NS(=O)(=O)c2ccccc2Cl)ccc1-c1cc(C)c2nc(N[C@H]3CC[C@H](N(C)C)CC3)ncc2c1` [Compound 133, 2-chloro-N-(5-(2-(((1r,4r)-4-(dimethylamino)cyclohexyl)amino)-8-methylquinazolin-6-yl)-6-methoxypyridin-2-yl)benzenesulfonamide], the EC50 in experiment [2] is under 5 nM.

Turning to `COc1nc(NS(=O)(=O)c2ccccc2Cl)ccc1-c1cc(C(F)(F)F)c2nc(N[C@H]3CC[C@H](N(C)C)CC3)ncc2c1` [Compound 135, 2-chloro-N-(5-(2-(((1r,4r)-4-(dimethylamino)cyclohexyl)amino)-8-(trifluoromethyl)quinazolin-6-yl)-6-methoxypyridin-2-yl)benzenesulfonamide], in experiment [2], the EC50 is under 5 nM.

`COCc1cc(-c2ccc(NS(=O)(=O)c3ccccc3Cl)nc2OC)cc2cnc(N[C@H]3CC[C@H](N(C)C)CC3)nc12` [Compound 137, 2-chloro-N-(5-(2-(((1r,4r)-4-(dimethylamino)cyclohexyl)amino)-8-(methoxymethyl)quinazolin-6-yl)-6-methoxypyridin-2-yl)benzenesulfonamide]: in experiment [2], the EC50 was under 5 nM.

Turning to `CCc1cc(-c2ccc(NS(=O)(=O)c3ccccc3Cl)nc2OC)cc2cnc(N[C@H]3CC[C@@H](N(C)C)CC3)nc12` [Compound 141, 2-chloro-N-(5-(2-(((1s,4s)-4-(dimethylamino)cyclohexyl)amino)-8-ethylquinazolin-6-yl)-6-methoxypyridin-2-yl)benzenesulfonamide], the half-maximal effective concentration (EC50) in experiment [2] lay within 100 to 10000 nM.

`COc1nc(NS(=O)(=O)c2ccccc2Cl)c(F)cc1-c1cc(C)c2nc(N[C@H]3CC[C@H](N(C)C)CC3)ncc2c1` [Compound 145, 2-chloro-N-(5-(2-(((1r,4r)-4-(dimethylamino)cyclohexyl)amino)-8-methylquinazolin-6-yl)-3-fluoro-6-methoxypyridin-2-yl)benzenesulfonamide]: the EC50 in experiment [2] was under 5 nM.

Consider `COc1nc(NS(=O)(=O)c2ccccc2Cl)ccc1-c1cc(F)c2nc(N[C@H]3CC[C@H](N(C)C)CC3)ncc2c1` [Compound 148, 2-chloro-N-(5-(2-(((1r,4r)-4-(dimethylamino)cyclohexyl)amino)-8-fluoroquinazolin-6-yl)-6-methoxypyridin-2-yl)benzenesulfonamide], for which the EC50 in experiment [2] was under 5 nM.

`COc1nc(NS(=O)(=O)c2ccccc2Cl)c(F)cc1-c1ccc2nc(N[C@H]3CC[C@H](N(C)C)CC3)ncc2c1` [Compound 149, 2-chloro-N-(5-(2-(((1r,4r)-4-(dimethylamino)cyclohexyl)amino)quinazolin-6-yl)-3-fluoro-6-methoxypyridin-2-yl)benzenesulfonamide]: the EC50 in experiment [2] was in the range of 5 to 50 nM.

As for `CN[C@H]1CC[C@H](Nc2ncc3cc(-c4cc(F)c(NS(=O)(=O)c5ccccc5Cl)nc4OC)ccc3n2)CC1` [Compound 150, 2-chloro-N-(3-fluoro-6-methoxy-5-(2-(((1r,4r)-4-(methylamino)cyclohexyl)amino)quinazolin-6-yl)pyridin-2-yl)benzenesulfonamide], the EC50 in experiment [2] fell in the range of 5 to 50 nM.

Take `CCc1cc(-c2ccc(NS(=O)(=O)c3ccccc3Cl)nc2C)cc2cnc(N[C@@H]3CC[C@@H](N(C)C)C[C@@H]3F)nc12` [Compound 151, 2-chloro-N-(5-(2-(((1R,2S,4R)-4-(dimethylamino)-2-fluorocyclohexyl)amino)-8-ethylquinazolin-6-yl)-6-methylpyridin-2-yl)benzenesulfonamide]: the EC50 in experiment [2] was under 5 nM.

On to `CCc1cc(-c2ccc(NS(=O)(=O)c3cccc(Cl)c3Cl)nc2C)cc2cnc(N[C@H]3CC[C@H](N(C)C)CC3)nc12` [Compound 152, 2,3-dichloro-N-(5-(2-(((1r,4r)-4-(dimethylamino)cyclohexyl)amino)-8-ethylquinazolin-6-yl)-6-methylpyridin-2-yl)benzenesulfonamide], for which the concentration giving a half-maximal response (EC50) in experiment [2] is under 5 nM.

With `Cc1nc(NS(=O)(=O)c2ccccc2Cl)c(F)cc1-c1ccc2nc(N[C@H]3CC[C@H](N(C)C)CC3)ncc2c1` [Compound 153, 2-chloro-N-(5-(2-(((1r,4r)-4-(dimethylamino)cyclohexyl)amino)quinazolin-6-yl)-3-fluoro-6-methylpyridin-2-yl)benzenesulfonamide], in experiment [2], the EC50 lay in the range of 5 to 50 nM.

As to `CCc1cc(-c2cnc(NS(=O)(=O)c3ccccc3Cl)nc2OC)cc2cnc(NC3CCC(N(C)C)CC3)nc12` (stereo not shown) [Compound 154, 2-chloro-N-(5-(2-(((1r,4r)-4-(dimethylamino)cyclohexyl)amino)-8-ethylquinazolin-6-yl)-4-methoxypyrimidin-2-yl)benzenesulfonamide], the EC50 in experiment [2] was under 5 nM.

For `COc1nc(NS(=O)(=O)c2ccccc2Cl)c(F)cc1-c1cc(F)c2nc(N[C@H]3CC[C@H](N(C)C)CC3)ncc2c1` [Compound 155, 2-chloro-N-(5-(2-(((1r,4r)-4-(dimethylamino)cyclohexyl)amino)-8-fluoroquinazolin-6-yl)-3-fluoro-6-methoxypyridin-2-yl)benzenesulfonamide], the concentration for a half-maximal effect (EC50) in experiment [2] was 50 to 100 nM.

Take `CCc1cc(-c2ncc(NS(=O)(=O)c3ccccc3Cl)nc2OC)cc2cnc(N[C@H]3CC[C@H](N(C)C)CC3)nc12` [Compound 157, 2-chloro-N-(5-(2-(((1r,4r)-4-(dimethylamino)cyclohexyl)amino)-8-ethylquinazolin-6-yl)-6-methoxypyrazin-2-yl)benzenesulfonamide]: the concentration giving a half-maximal response (EC50) in experiment [2] was under 5 nM.

As for `CCc1cc(-c2ccc(NS(=O)(=O)c3cccc(F)c3Cl)nc2C)cc2cnc(N[C@H]3CC[C@H](N(C)C)CC3)nc12` [Compound 158, 2-chloro-N-(5-(2-(((1r,4r)-4-(dimethylamino)cyclohexyl)amino)-8-ethylquinazolin-6-yl)-6-methylpyridin-2-yl)-3-fluorobenzenesulfonamide], the concentration giving a half-maximal response (EC50) in experiment [2] was under 5 nM.

As for `CCc1cc(-c2nnc(NS(=O)(=O)c3ccccc3Cl)cc2OC)cc2cnc(N[C@H]3CC[C@H](N(C)C)CC3)nc12` [Compound 159, 2-chloro-N-(6-(2-(((1r,4r)-4-(dimethylamino)cyclohexyl)amino)-8-ethylquinazolin-6-yl)-5-methoxypyridazin-3-yl)benzenesulfonamide], the half-maximal effective concentration (EC50) in experiment [2] was 5 to 50 nM.

For `CCc1cc(-c2ccc(NS(=O)(=O)c3cccc(C)c3Cl)nc2C)cc2cnc(N[C@H]3CC[C@H](N(C)C)CC3)nc12` [Compound 160, 2-chloro-N-(5-(2-(((1r,4r)-4-(dimethylamino)cyclohexyl)amino)-8-ethylquinazolin-6-yl)-6-methylpyridin-2-yl)-3-methylbenzenesulfonamide], the EC50 in experiment [2] is under 5 nM.

On to `CCc1c(F)c(-c2ccc(NS(=O)(=O)c3ccccc3Cl)nc2C)cc2cnc(N[C@H]3CC[C@H](N(C)C)CC3)nc12` [Compound 161, 2-chloro-N-(5-(2-(((1r,4r)-4-(dimethylamino)cyclohexyl)amino)-8-ethyl-7-fluoroquinazolin-6-yl)-6-methylpyridin-2-yl)benzenesulfonamide], for which, in experiment [2], the EC50 is under 5 nM.

As for `CCc1c(F)c(-c2cc(F)c(NS(=O)(=O)c3ccccc3Cl)nc2C)cc2cnc(N[C@H]3CC[C@H](N(C)C)CC3)nc12` [Compound 162, 2-chloro-N-(5-(2-(((1r,4r)-4-(dimethylamino)cyclohexyl)amino)-8-ethyl-7-fluoroquinazolin-6-yl)-3-fluoro-6-methylpyridin-2-yl)benzenesulfonamide], in experiment [2], the concentration giving a half-maximal response (EC50) is under 5 nM.

Consider `CCc1c(F)c(-c2cc(F)c(NS(=O)(=O)c3ccccc3Cl)nc2OC)cc2cnc(N[C@H]3CC[C@H](N(C)C)CC3)nc12` [Compound 163, 2-chloro-N-(5-(2-(((1r,4r)-4-(dimethylamino)cyclohexyl)amino)-8-ethyl-7-fluoroquinazolin-6-yl)-3-fluoro-6-methoxypyridin-2-yl)benzenesulfonamide], for which the EC50 in experiment [2] is under 5 nM.
